Drawing on patent US20140235616A1, “PYRAZOLOQUINOLINONE DERIVATIVES, PREPARATION THEREOF AND THERAPEUTIC USE THEREOF” (SANOFI, priority 2011, published 2014), this text covers IC50 and inhibition for three compounds.

The subject of one assay is HUVEC cells. Briefly: Test of in vitro proliferation of HUVEC cells induced with FGF-2. The settings on record: Homo sapiens, read-out: HUVEC Proliferation IC50 (M).
A further assay deals with T1, human MetAP2 (Homo sapiens, UniProt P50579).
T1 construct: made in house; host or cells: Sf9 insect cells (baculovirus)
T1 sequence (P50579 whole entry): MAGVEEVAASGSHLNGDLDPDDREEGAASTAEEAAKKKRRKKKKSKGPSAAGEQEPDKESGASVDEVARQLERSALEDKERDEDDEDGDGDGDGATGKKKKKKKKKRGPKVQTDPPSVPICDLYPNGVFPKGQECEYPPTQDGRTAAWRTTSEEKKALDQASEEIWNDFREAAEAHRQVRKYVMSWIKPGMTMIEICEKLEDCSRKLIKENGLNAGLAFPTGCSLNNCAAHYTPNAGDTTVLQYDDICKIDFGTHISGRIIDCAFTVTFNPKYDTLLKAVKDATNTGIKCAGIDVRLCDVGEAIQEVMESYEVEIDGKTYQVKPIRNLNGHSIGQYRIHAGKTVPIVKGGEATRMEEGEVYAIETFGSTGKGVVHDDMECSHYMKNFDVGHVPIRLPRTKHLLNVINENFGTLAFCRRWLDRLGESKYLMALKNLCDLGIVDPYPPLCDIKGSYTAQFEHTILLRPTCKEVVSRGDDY
Briefly: MetAP2 enzymatic screening test (isolated enzyme, Met-Pro-Arg-pNa substrate, absorbance at 405 nm). The format is biochemical. Particulars: read-out: % inhibition hMETAP2 at 100 nM. As to the method: The compounds according to the invention underwent biochemical studies in order to determine their capacity to inhibit the enzyme methionine-aminopeptidase2 (enzymatic test on isolated enzyme).
MetAP2 Enzymatic Screening Test
For the enzymatic test, human MetAP2 protein was obtained from a culture supernatant of insect cells (sf9) infected with MetAP2 recombinant baculovirus.
Before performing the experiment, dialysis of the MetAP2 supernatant is performed over 24 hours at 4° C. in a buffer (10 mM Hepes, 100 mM KCl, 10% glycerol, pH 7.4) in the presence of EDTA (1 mM) over the first 12 hours.
The dialysis supernatant is recovered and manganese, used as cofactor, is added to a final concentration of 300 μM.
The enzymatic test is a test in two steps.
Consequently, the second step consists in reacting the peptides cleaved in the preceding step with a second peptidase in order to release the chromophore.

Protocol for HUVEC cells: Test of In Vitro Proliferation of HUVEC Cells Induced with Fibroblast Growth Factor 2 (FGF-2).
After incubation for 48 hours, the medium is aspirated and replaced with the deprivation medium RPMI1640 mentioned previously. A second stimulation is then performed. The cells are again incubated at 37° C. in the presence of CO2. After incubation for 72 hours, the medium is again aspirated and 100 μl of Cell Titer-GLO™ Luminescent Cell Viability Assay (Promega, G7571) are added over 10 minutes. The amount of ATP present in the cells, measured using a luminometer, is proportional to the number cells per well corresponding to the cell proliferation.

By inhibition is commonly meant the change of the read-out against control, counted positive when it falls. As to `O=c1c2cn[nH]c2c2ccc(-c3ccccc3F)cc2n1CC(F)(F)F` [Compound 3, 7-(2-fluorophenyl)-5-(2,2,2-trifluoroethyl)-1,5-dihydro-4H-pyrazolo[4,3-c]quinolin-4-one], in the assay on HUVEC cells, the IC50 came to 6.6e-07 M. Moreover, the inhibition at 0.1 µM on human MetAP2 was found to be 34%. For `Cc1cc(-c2ccc3c4[nH]ncc4c(=O)n(CC(F)(F)F)c3c2)ccn1` [Compound 186, 7-(2-methylpyrid-4-yl)-5-(2,2,2-trifluoroethyl)-1,5-dihydro-4H-pyrazolo[4,3-c]quinolin-4-one] the same measures were 3.6e-07 M and 43%.

In the case of `CC(C)NS(=O)(=O)c1ccccc1-c1ccc2c3[nH]ncc3c(=O)n(CC(F)(F)F)c2c1` [Compound 134, N-isopropyl-2-[4-oxo-5-(2,2,2-trifluoroethyl)-4,5-dihydro-1H-pyrazolo[4,3-c]quinolin-7-yl]benzenesulfonamide], the inhibition at 0.1 µM at human MetAP2 was found to be 45%.
